From patent US7199113B2, “Pharmaceutically active compounds and methods of use thereof” (priority 1998, dated 2007)

Biological target: T1, FVIIa (Homo sapiens, UniProt P08709)
T1 construct: proteolytic cleavage of the zymogen FVII to the active serine protease FVIIa; purchased Enzyme Research Laboratories Inc
T1 sequence (P08709 213-466 limits assumed): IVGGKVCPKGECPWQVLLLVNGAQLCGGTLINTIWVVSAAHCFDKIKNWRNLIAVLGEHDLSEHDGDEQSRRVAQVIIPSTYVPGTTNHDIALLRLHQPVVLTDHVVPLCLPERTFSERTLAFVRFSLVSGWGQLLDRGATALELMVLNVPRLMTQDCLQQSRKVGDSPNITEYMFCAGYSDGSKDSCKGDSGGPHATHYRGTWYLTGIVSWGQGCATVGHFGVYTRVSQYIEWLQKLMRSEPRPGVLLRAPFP
T1 sequence (P08709 61-212 limits assumed): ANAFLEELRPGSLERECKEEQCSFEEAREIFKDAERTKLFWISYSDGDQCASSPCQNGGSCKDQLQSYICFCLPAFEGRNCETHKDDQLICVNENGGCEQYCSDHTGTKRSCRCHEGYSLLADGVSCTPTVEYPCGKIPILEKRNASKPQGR
Assay: FVIIa-dependent FX activation (TF omitted)
Type: biochemical
Conditions: statement on Table 2 (FIG. 2(b))
Description: FVIIa alone in the presence of phospholipids and calcium is also able to activate FX, although at a very low rate. This experiment was designed to examine whether compounds 1 and 2 inhibit FVIIa-dependent FX activation if TF is omitted. […] This assay was done at relatively high FVIIa concentrations. Six microliters of compound 1(1 mM in 10% DMSO) or 10% DMSO was mixed with 40 μl of 25 mM HEPES-NaOH, 5 mM CaCl2, 150 mM NaCl, 0.1% BSA, pH 7.5 containing phosphatidylcholine (0.07 mg/ml) and phosphatidylserine (0.03 mg/ml). Then 4 μl of FVIIa (1.5 μM) and 10 μl of FX (180 nM) were added and mixed. The mixture was incubated for 1 hour at 37° C. Then 10 μl of EDTA (400 mM) was added to stop FVII activity by removing the calcium required for factor VII activity. Then 10 μl of FXa substrate S-2765 (3.2 mM) was added to measure the FXa activity generated by FVIIa. After 16 minutes incubation at 37° C., 20 μl of 50% acetic acid was added to quench the reaction. Absorbance at 405 nm was read and the percent inhibition of FVIIa-dependent FX activation was calculated from OD405 nm values in the absence and presence of compound 1.

For `O=P(O)(O)C(CNc1cccc(O)c1)P(=O)(O)O` [Compound 1, 1-(bisphosponate)-2-amino(3-hydroxyphenyl)ethyl], the “inhibition of FVIIa-dependent FX activation” value was “does not inhibit FVIIa-dependent FX activation”.
